One experiment concerns the target MCL-1 (Homo sapiens, UniProt Q07820). In words: Protein-protein interaction assay MCL-1/Noxa BH3 peptide (MCL-1 assay), TR-FRET. Format: binding. As to conditions: MBP-MCL-1 / Noxa BH3-derived peptide, median. The essentials:
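Displacement of the biotinylated Noxa BH3 peptide from MBP-tagged human MCL-1 (1 nM) is detected by time-resolved FRET. Compounds are tested in duplicate across eleven concentrations up to 20 μM, incubated 1 h at 22 °C and overnight at 4 °C, and IC50 is fitted with a four-parameter equation.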
(TR-FRET usually uses a lanthanide donor and a delayed reading to cut background.)

In experiment [1] the test system is SUDHL5. In words: Induction of caspase-3/7 activity (Caspase-Glo 3/7), SUDHL5. Format: cell-based. The settings on record: Homo sapiens, SU-DHL-5, 3 h, caspase-3/7 induction, SUDHL5 cells, 3 h treatment; median. The essentials: (§1)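 Caspase-Glo 3/7 luminescence, 3 h compound exposure, 37 °C, humidified. Minus medium-only blank. EC50 fit: C0=1, plateau = reference max induction.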

In experiment [2] the test system is SUDHL10. The experiment can be described thus: Induction of caspase-3/7 activity (Caspase-Glo 3/7), SUDHL10. Format: cell-based. As to conditions: Homo sapiens, SU-DHL10, 3 h, caspase-3/7 induction, SUDHL10 cells, 3 h treatment; median. The essentials:
as §1

Experiment [3] relates to SUDHL5. The experiment can be described thus: Anti-proliferative effect (CellTiter-Glo, 72 h), SUDHL5. The settings on record: Homo sapiens, SU-DHL-5, 72 h, SUDHL5 cells, antiproliferation, 72 h incubation, median, read-out: Antiproli SUDHL5 [M] (median). Format: cell-based. The gist of the method: (§2)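 CTG luminescence read-out after 72 h compound exposure, 37 °C, humidified. Time-zero reference plate read at plating.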
On the technique in general: Cellular ATP, detected with luciferase, serves as a proxy for viable cell number.

Experiment [4] deals with SUDHL10. The experiment can be described thus: Anti-proliferative effect (CellTiter-Glo, 72 h), SUDHL10. It is filed as cell-based. The settings on record: Homo sapiens, SU-DHL10, 72 h, SUDHL10 cells, antiproliferation, 72 h incubation, median, read-out: Antiproli SUDHL10 [M] (median). The procedure:
Assessment of the Anti-Proliferative Effect of Compounds in Different Cell Lines
The impact of compounds on the proliferation of different cell lines was assessed using the CellTiter-Glo® Luminescent Cell Viability reagent from Promega (G7573). Of note, SUDHL10 and SUDHL5 (DLBCL), NCI-H929 (Multiple Myeloma), A2780 (ovarian carcinoma) as well as MV-4-11(AML) cells are sensitive to MCL-1 inhibition.
In parallel, cells were plated in a reference (day 0) plate for time zero determination.
Rim wells were excluded. The cells were incubated for 72 h hours in a humidified incubator at 37° C. The day 0 plate was measured by adding 30 μl/well of CTG solution (CellTiter-Glo® Luminescent Cell Viability reagent, Promega G7573) to time zero wells in the reference plate followed by a 10 minutes incubation and luminescence reading at 0.1 ms, using the PHERAstar FS microplate reader (BMG Labtech).
After 72 h incubation, the treated plates were measured in the same way as the day 0 plate mentioned above.

A further experiment concerns A2780. The experiment can be described thus: Anti-proliferative effect (CellTiter-Glo, 72 h), A2780. It is filed as cell-based. As to conditions: A2780 cells, median, read-out: IC50 antiproliferation assay A2780 [M] (median). The gist of the method:
as §2

Experiment [5] has as its system SUDHL5. In words: Induction of cytotoxicity (CellTiter-Glo, 5 h), SUDHL5. As to conditions: Homo sapiens, SU-DHL-5, 5 h, read-out: Cytotox SUDHL5 [M] (median), SUDHL5 cells, cytotoxicity induction, CellTiter-Glo, 5 h incubation, median.
Description: Therefore, cytotoxicity assays were run in parallel in SUDHL5 and SUDHL10 cells.
The different cell lines were plated in culture medium (RPMI 1640 [GIBCO #22400-089]supplemented with 10% Fetal Bovine Serum) at a density of 3.300 cells in 30 μl/well in a sterile, solid black, flat bottom, polystyrene, TC-treated 384-well microplate (Corning #3571) using Multidrop Combi Reagent Dispenser. As a control, medium without cells was also added to the plate. Cells were incubated in a humidified incubator at 37° C. overnight. On the next day, the cells were treated with compounds (stock solution, 10 mM in DMSO) using the HP D300 Digital Dispenser in a concentration range of 3.3×10e-5 M (33 μM) to 5×10e-9 M (5 nM) in a single-dot curve with at least 16 dilutions and a DMSO concentration of 0.33%. Rim wells were excluded. The cells were incubated for 5 h hours in a humidified incubator at 37° C. After this incubation, 30 μl of CellTiter-Glo@ Luminescent Cell Viability reagent (Promega, G7573) was added to each well using the Multidrop Combi Reagent Dispenser, followed by 15 min incubation on a shaker at room temperature. Finally, luminescence was read at 0.1 ms, with a gain of 3000 using the PHERAstar FS microplate reader (BMG Labtech).
The Bella DRC Master Sheet was used to calculate IC50s, with fixed CI=0 and C0=1.
In experiment [6] the test system is SUDHL10. In words: Induction of cytotoxicity (CellTiter-Glo, 5 h), SUDHL10. As to conditions: Homo sapiens, SU-DHL10, 5 h, read-out: Cytotox SUDHL10 [M] (median), SUDHL10 cells, cytotoxicity induction, CellTiter-Glo, 5 h incubation, median.

Read-outs that look alike come from different tables or passages of the source. Some results are limits rather than exact numbers.

A word on the EC50: it is the concentration needed to bring the measured effect to its halfway point. A high value points to lower potency in that assay.

MCL-1, sequence (Q07820 whole entry): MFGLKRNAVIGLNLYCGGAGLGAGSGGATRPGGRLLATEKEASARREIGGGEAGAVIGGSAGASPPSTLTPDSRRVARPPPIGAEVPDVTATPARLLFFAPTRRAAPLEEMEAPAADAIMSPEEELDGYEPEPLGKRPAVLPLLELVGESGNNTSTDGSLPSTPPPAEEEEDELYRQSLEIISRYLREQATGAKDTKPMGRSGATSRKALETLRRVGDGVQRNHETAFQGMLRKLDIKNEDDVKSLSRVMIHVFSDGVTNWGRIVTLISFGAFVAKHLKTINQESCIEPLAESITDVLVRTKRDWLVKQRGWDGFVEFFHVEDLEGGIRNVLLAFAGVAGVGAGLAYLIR

Consider `COCc1c2c(nn1C)COCCCCn1c(C(=O)O)c(CCCOc3cccc4ccccc34)c3cccc-2c31` (racemic) [Example 099, (rac)-3-(methoxymethyl)-2-methyl-7-[3-(naphthalen-1-yloxy)propyl]-2,10,11,12,13,15-hexahydropyrazolo[4′,3′:9,10][1,6]oxazacycloundecino[8,7,6-hi]indole-8-carboxylic Acid], for which the IC50 against MCL-1 is 0.0043 µM; in the experiment on SUDHL5 [3], 8.47e-06 M; in the experiment on SUDHL10 [4] it was 1.08e-05 M; with A2780 (Homo sapiens, A2780, 72 h), 2.11e-05 M; with SUDHL5 [5], 3.86e-06 M; in the experiment with SUDHL10 [6] it was 1.75e-05 M. Moreover, the values for the EC50 in the experiment with SUDHL5 [1] and in the experiment on SUDHL10 [2] were 5.2 µM and 12.8 µM, respectively.

As to `COCc1c2c(nn1C)COCCCCn1c(C(=O)O)c(CCCOc3cccc4c3CCCC4)c3cccc-2c31` (racemic) [Example 105, (rac)-3-(methoxymethyl)-2-methyl-7-[3-(5,6,7,8-tetrahydronaphthalen-1-yloxy)propyl]-2,10,11,12,13,15-hexahydropyrazolo[4′,3′:9,10][1,6]oxazacycloundecino[8,7,6-hi]indole-8-carboxylic Acid], the IC50 at MCL-1 turned out to be 0.00268 µM; in the experiment on SUDHL5 [3], 1.01e-05 M; in the experiment with SUDHL10 [4], 9.89e-06 M; in the experiment with A2780 (Homo sapiens, A2780, 72 h), 1.49e-05 M; in the experiment with SUDHL5 [5], 7.19e-06 M; in the experiment with SUDHL10 [6], 1.92e-05 M. Also, the concentration for a half-maximal effect (EC50) in the experiment with SUDHL5 [1] came out at 8.27 µM; in the experiment with SUDHL10 [2] it was 23.9 µM.

On to `CCNCc1nn(C)c2c1-c1cccc3c(CCCOc4cccc5ccccc45)c(C(=O)O)n(c13)CCCCOC2` (racemic) [Example 156, (rac)-3-[(ethylamino)methyl]-1-methyl-7-[3-(naphthalen-1-yloxy)propyl]-1,10,11,12,13,15-hexahydropyrazolo[4′,3′:9,10][1,6]oxazacycloundecino[8,7,6-hi]indole-8-carboxylic Acid], for which the IC50 against MCL-1 is 0.152 µM; in the experiment with SUDHL5 [3] it was > 3.3e-05 M; with SUDHL10 [4] it was 2.23e-05 M; in the experiment with A2780 (Homo sapiens, A2780, 72 h) it was > 3.3e-05 M; with SUDHL5 [5], > 3.3e-05 M; in the experiment on SUDHL10 [6] it was > 3.3e-05 M. Besides, the EC50 in the experiment on SUDHL5 [1] and with SUDHL10 [2] was > 33 µM in each case.

For the compound `CN1CCCn2c(C(=O)O)c(CCCOc3cccc4ccccc34)c3cccc(c32)-c2c(CN3CCOCC3=O)nn(C)c2C1` (racemic) [Example 157, (rac)-7,9-dimethyl-1-[3-(naphthalen-1-yloxy)propyl]-11-[(3-oxomorpholin-4-yl)methyl]-4,5,6,7,8,9-hexahydropyrazolo[3′,4′:7,8][1,5]diazecino[9,10,1-hi]indole-2-carboxylic Acid], the IC50 was 0.289 µM against MCL-1; > 3.3e-05 M in the experiment on SUDHL5 [3]; > 3.3e-05 M with SUDHL10 [4]; > 3.3e-05 M with A2780 (Homo sapiens, A2780, 72 h); > 3.3e-05 M in the experiment with SUDHL5 [5]; > 3.3e-05 M in the experiment with SUDHL10 [6]. The EC50 in the experiment on SUDHL5 [1] and in the experiment with SUDHL10 [2] was > 33 µM in each case.

On to `Cc1nn(CC(F)(F)F)c2c1-c1cccc3c(CCCOc4cccc5c4CCCC5)c(C(=O)O)n(c13)CCCCOC2` (racemic) [Example 161, (rac)-3-methyl-7-[3-(5,6,7,8-tetrahydronaphthalen-1-yloxy)propyl]1-(2,2,2-trifluoroethyl)-1,10,11,12,13,15-hexahydropyrazolo[4′,3′:9,10][1,6]oxazacycloundecino[8,7,6-hi]indole-8-carboxylic Acid], for which the IC50 against MCL-1 was 0.0521 µM; in the experiment with SUDHL5 [3], 1.36e-05 M; in the experiment on SUDHL10 [4] it was 1.26e-05 M; in the experiment with A2780 (Homo sapiens, A2780, 72 h), 1.62e-05 M; in the experiment on SUDHL5 [5], 1.06e-05 M; with SUDHL10 [6], > 3.3e-05 M. Moreover, the figures for the EC50 in the experiment with SUDHL5 [1] and in the experiment with SUDHL10 [2] were 15 µM and > 33 µM, respectively.

For `COCCn1nc(C2CC2)c2c1COCCCCn1c(C(=O)O)c(CCCOc3cccc4c3CCCC4)c3cccc-2c31` (racemic) [Example 164, (rac)-3-Cyclopropyl-1-(2-methoxyethyl)-7-[3-(5,6,7,8-tetrahydronaphthalen-1-yloxy)propyl]-1,10,11,12,13,15-hexahydropyrazolo[4′,3′:9,10][1,6]oxazacycloundecino[8,7,6-hi]indole-8-carboxylic Acid], the IC50 came out at 0.0107 µM on MCL-1; 1.6e-05 M with SUDHL5 [3]; 1.69e-05 M with SUDHL10 [4]; 2.03e-05 M in the experiment on A2780 (Homo sapiens, A2780, 72 h); 9.23e-06 M in the experiment with SUDHL5 [5]; 3.07e-05 M with SUDHL10 [6]. Moreover, the results for the EC50 with SUDHL5 [1] and in the experiment on SUDHL10 [2] were 12 µM and > 33 µM, respectively.

As for `Cn1nc(CN2CC(F)(F)C2)c2c1COCCCCn1c(C(=O)O)c(CCCOc3cccc4ccccc34)c3cccc-2c31` (racemic) [Example 180, (rac)-3-[(3,3-difluoroazetidin-1-yl)methyl]-1-methyl-7-[3-(naphthalen-1-yloxy)propyl]-1,10,11,12,13,15-hexahydropyrazolo[4′,3′:9,10][1,6]oxazacycloundecino[8,7,6-hi]indole-8-carboxylic Acid], the IC50 came out at 0.0177 µM against MCL-1; 7.77e-06 M in the experiment with SUDHL5 [3]; 8.97e-06 M in the experiment on SUDHL10 [4]; 2.36e-05 M in the experiment with A2780 (Homo sapiens, A2780, 72 h); 1.1e-05 M in the experiment on SUDHL5 [5]; 3.11e-05 M in the experiment on SUDHL10 [6]. Also, the EC50 in the experiment with SUDHL5 [1] is 14.5 µM; with SUDHL10 [2] it was 28.2 µM.

As for `COCc1nn(C)c2c1-c1cccc3c(CCCOc4cccc5ccccc45)c(C(=O)O)n(c13)CCCCN(C)C2` (racemic) [Example 183, (rac)-3-(methoxymethyl)-1,14-dimethyl-7-[3-(naphthalen-1-yloxy)propyl]-10,11,12,13,14,15-hexahydro-1H-pyrazolo[3′,4′:8,9][1,6]diazacycloundecino[10,11,1-hi]indole-8-carboxylic Acid], the IC50 is 0.00225 µM at MCL-1; 2.43e-06 M in the experiment with SUDHL5 [3]; 4.14e-06 M in the experiment with SUDHL10 [4]; 2.39e-05 M with A2780; > 3.3e-05 M in the experiment with A2780 (Homo sapiens, A2780, 72 h); 1.88e-06 M with SUDHL5 [5]. Besides, in the experiment on SUDHL10 [6], the IC50 worked out at 5.55e-06 M. The EC50 with SUDHL5 [1] came out at 1.46 µM; in the experiment with SUDHL10 [2], 5.89 µM.

Regarding `Cn1nc2c(c1C(F)(F)F)-c1cccc3c(CCCOc4cccc5ccccc45)c(C(=O)O)n(c13)CCCCOC2` (racemic) [Example 186, (rac)-2-methyl-7-[3-(naphthalen-1-yloxy)propyl]-3-(trifluoromethyl)-2,10,11,12,13,15-hexahydropyrazolo[4′3′:9,10][1,6]oxazacycloundecino[8,7,6,6-hi]indole-8-carboxylic Acid], the IC50 against MCL-1 is 0.0157 µM; in the experiment on SUDHL5 [3], 8.69e-06 M; in the experiment with SUDHL10 [4], 1.4e-05 M; with A2780 it was 2.28e-05 M; in the experiment with A2780 (Homo sapiens, A2780, 72 h), > 3.3e-05 M; with SUDHL5 [5], 1.14e-05 M. In addition, the IC50 in the experiment with SUDHL10 [6] is 2.61e-05 M. The EC50 amounted to 9.85 µM in the experiment on SUDHL5 [1] and 18.6 µM in the experiment with SUDHL10 [2].

For `CCCc1nn(C)c2c1-c1c(C)ccc3c(CCCOc4cccc5ccccc45)c(C(=O)O)n(c13)CCCCOC2` (racemic) [Example 187, (rac)-1,4-dimethyl-7-[3-(naphthalen-1-yloxy)propyl]-3-propyl-1,10,11,12,13,15-hexahydropyrazolo[4′,3′:9,10][1,6]oxazacycloundecino[8,7,6-hi]indole-8-carboxylic Acid], the IC50 at MCL-1 was 0.00261 µM; in the experiment on SUDHL5 [3] it was 7.27e-06 M; in the experiment on SUDHL10 [4], 1.41e-05 M; in the experiment with A2780 it was > 3.3e-05 M; in the experiment with A2780 (Homo sapiens, A2780, 72 h) it was 2.17e-05 M; with SUDHL5 [5], 3.85e-06 M. In the experiment with SUDHL10 [6], the IC50 came to 1.07e-05 M. Also, the EC50 in the experiment with SUDHL5 [1] was 3.71 µM; with SUDHL10 [2], 13.3 µM.

Values taken from patent US10981932B2, “Macrocyclic indole derivatives” (Bayer Aktiengesellschaft, priority 2016, dated 2021).
